This is an account of results in ChEMBL document CHEMBL5108062 (J Med Chem, 2022).

SMILES strings stand for the structures.

For orientation: IC50 means the midpoint of a concentration-inhibition curve.

In this experiment the target is Dipeptidyl peptidase 4 (Homo sapiens, UniProt P27487). Description: Inhibition of human recombinant DPP4 using H-Gly-Pro-AMC as substrate incubated for 30 mins by fluorescence based microplate reader assay.
Sequence of Dipeptidyl peptidase 4 (P27487 whole entry): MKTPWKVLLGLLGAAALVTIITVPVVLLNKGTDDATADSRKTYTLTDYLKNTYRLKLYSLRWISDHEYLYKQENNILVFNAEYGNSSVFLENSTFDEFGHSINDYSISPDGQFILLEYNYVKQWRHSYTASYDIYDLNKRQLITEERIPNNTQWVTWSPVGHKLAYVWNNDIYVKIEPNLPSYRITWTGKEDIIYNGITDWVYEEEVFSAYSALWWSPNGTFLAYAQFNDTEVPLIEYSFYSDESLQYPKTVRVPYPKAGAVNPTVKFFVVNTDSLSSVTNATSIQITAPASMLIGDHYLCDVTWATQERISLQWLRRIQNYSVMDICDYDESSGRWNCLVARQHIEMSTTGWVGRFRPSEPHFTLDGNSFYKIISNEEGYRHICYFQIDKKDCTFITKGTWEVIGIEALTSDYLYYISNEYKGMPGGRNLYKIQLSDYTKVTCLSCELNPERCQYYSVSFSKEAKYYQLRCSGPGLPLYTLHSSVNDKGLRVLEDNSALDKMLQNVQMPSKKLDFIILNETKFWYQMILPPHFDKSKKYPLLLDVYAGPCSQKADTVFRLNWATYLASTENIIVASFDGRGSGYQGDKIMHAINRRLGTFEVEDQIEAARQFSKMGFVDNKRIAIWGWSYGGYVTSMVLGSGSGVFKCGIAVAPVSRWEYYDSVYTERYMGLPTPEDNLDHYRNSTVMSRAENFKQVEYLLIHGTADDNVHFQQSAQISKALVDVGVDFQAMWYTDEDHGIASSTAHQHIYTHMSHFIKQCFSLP

As to `COc1cc(S(N)(=O)=O)ccc1OCCC(N=[N+]=[N-])C1COc2ccccc2O1` (stereo unspecified), the IC50 worked out at 327 µM.
